This experiment addresses Glycogen synthase kinase-3 beta (Homo sapiens, UniProt P49841). The experiment in a line: concentration-response blocking of human GSK3B – biochemical, luminescence, cell-free homogeneous, retest, dose response (AID 434954).
Chain of Glycogen synthase kinase-3 beta (P49841 whole entry): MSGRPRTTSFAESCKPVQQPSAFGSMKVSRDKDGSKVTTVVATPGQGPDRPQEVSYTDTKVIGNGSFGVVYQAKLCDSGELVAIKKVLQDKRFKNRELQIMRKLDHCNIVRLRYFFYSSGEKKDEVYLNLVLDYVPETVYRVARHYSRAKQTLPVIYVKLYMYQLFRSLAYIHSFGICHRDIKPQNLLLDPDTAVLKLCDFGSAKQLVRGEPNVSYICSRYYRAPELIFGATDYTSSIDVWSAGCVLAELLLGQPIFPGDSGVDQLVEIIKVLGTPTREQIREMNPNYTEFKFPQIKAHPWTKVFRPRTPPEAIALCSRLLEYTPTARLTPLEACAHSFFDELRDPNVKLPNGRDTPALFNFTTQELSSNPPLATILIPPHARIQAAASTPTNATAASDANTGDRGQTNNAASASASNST
What is called EC50 is the midpoint of the concentration-response curve. Compound `CCN(c1ccccc1)S(=O)(=O)c1cc(NC(=O)Nc2ccccc2C#N)ccc1Cl` [MLS000395038] registered a concentration for a half-maximal effect (EC50) greater than 300 µM.
Regarding `CC(=O)Nc1ccccc1C(=O)OCc1ccc(C(=O)c2ccccc2)cc1`, the half-maximal effective concentration (EC50) was greater than 300 µM.
For `Cc1cc(NC(=O)COc2cccnc2[N+](=O)[O-])no1` [N-(5-methyl-1,2-oxazol-3-yl)-2-(2-nitropyridin-3-yl)oxyacetamide], the EC50 is greater than 300 µM.
Next, `O=C(O)CNCC1COc2ccccc2O1` (centres undefined) [MLS000068078]: greater than 300 µM; `O=C1NC(=O)c2c(NC(=O)C3CCCO3)cccc21` (centres undefined) [MLS000064410]: greater than 300 µM; `Cc1ccc(S(=O)(=O)NCC(=O)N(CCc2ccccc2)CC(=O)NCc2ccco2)cc1` [N-[2-(furan-2-ylmethylamino)-2-oxoethyl]-2-[(4-methylphenyl)sulfonylamino]-N-(2-phenylethyl)acetamide]: greater than 300 µM.
Next, `O=C(O)c1ccccc1NC(=O)c1ccccc1Nc1ccccc1` [2-[(2-phenylazanylphenyl)carbonylamino]benzoic acid]: greater than 300 µM; `c1ccc(Nc2ccnc(Nc3ccccc3)n2)cc1` [N*2*,N*4*-Diphenyl-pyrimidine-2,4-diamine]: 37.6 µM.
As for `O=C(O)c1cc(N=NCc2ccc(-c3ccc(F)cc3)o2)ccc1Cl` [2-chloranyl-5-[2-[[5-(4-fluorophenyl)furan-2-yl]methylidene]hydrazinyl]benzoic acid], the figure is greater than 300 µM; as for `CNc1nc(N)c(C(=O)C(C)(C)C)s1` [MLS000050680], greater than 300 µM.
As for `Cc1ccc(-c2oc3ccccc3c(=O)c2O)cc1` [MLS000114653], the concentration giving a half-maximal response (EC50) is greater than 300 µM.
In the case of `Cc1c(C(=O)O)sc2c1c(=O)n(Cc1ccccc1)c(=O)n2C` [1,5-dimethyl-2,4-dioxo-3-(phenylmethyl)-6-thieno[2,3-d]pyrimidinecarboxylic acid], the half-maximal effective concentration (EC50) was greater than 300 µM.
As for `CC(=O)c1sc(NC(=O)CCNC(=O)c2ccco2)nc1-c1ccccc1`, the figure is 3.03 µM; as for `CCNC(=O)NC(=O)CSc1nc2ccccc2n1CCOC` [SMR000154706], greater than 300 µM; as for `COc1ccc(C(=O)c2coc3ccc(OC(C)=O)cc23)cc1`, greater than 300 µM.
Next, `CSc1nc2n(n1)C(c1cccs1)C1C(=O)CCCC1=N2` (centres undefined) [SMR000295648]: greater than 300 µM; `Nc1nc(NCc2ccco2)nc(Nc2ccccc2)c1[N+](=O)[O-]` [N-Furan-2-ylmethyl-5-nitro-N'-phenyl-pyrimidine-2,4,6-triamine]: greater than 300 µM; `O=C(O)c1ccccc1N=NCc1ccnc2ccccc12`: greater than 300 µM.
As for `O=C(C1CCCN(S(=O)(=O)c2ccccc2)C1)N1CCN(c2ncccn2)CC1` (centres undefined) [[1-(phenylsulfonyl)piperidin-3-yl]-(4-pyrimidin-2-ylpiperazin-1-yl)methanone], the figure is greater than 300 µM; as for `COc1ccc(-c2csc(N(CC3CCCO3)C(=O)c3ccccc3)n2)cc1` (centres undefined), greater than 300 µM.
For the compound `O=C(O)c1cccc(CSc2nnc(-c3cccnc3)o2)c1` [SMR000503811], the EC50 is greater than 300 µM.
Next, `Nc1nonc1-n1nnc(C(=O)NN=Cc2ccccc2Br)c1CN1CCCC1` [SMR000620637]: 1.57 µM.
For `CC1(C)CC(=O)C=C(Nc2ccccc2O)C1` [3-[(2-hydroxyphenyl)amino]-5,5-dimethyl-cyclohex-2-en-1-one], the EC50 is greater than 300 µM.
As for `Cc1ccc(CC(=O)Nc2ncc([N+](=O)[O-])s2)cc1` [2-(4-methylphenyl)-N-(5-nitro-1,3-thiazol-2-yl)acetamide], the figure is 28.8 µM.
Next, `CCN1CCc2c(C#N)c(N3CCCCC3)nc(N3CCOCC3)c2C1` [MLS000071254]: 16.1 µM; `COc1ccc2c(c1)-c1c(ssc1=S)C(C)(C)N2` [SMR000116363]: 6.72 µM.
Compound `Nc1nc(Nc2ccccc2)nc(NCCO)c1[N+](=O)[O-]` [2-(6-Amino-5-nitro-2-phenylamino-pyrimidin-4-ylamino)-ethanol] returned an EC50 of 5.77 µM.
As for `COc1ccc(-c2nn(-c3ccccc3)cc2C=NNC(=S)NC(C)C)cc1OC` [1-[[3-(3,4-dimethoxyphenyl)-1-phenyl-4-pyrazolyl]methylideneamino]-3-propan-2-ylthiourea], the figure is greater than 300 µM.
As for `CC(C)N1CCc2c(sc(NC(=O)CN3C(=O)c4ccccc4C3=O)c2C(N)=O)C1`, the figure is greater than 300 µM.
As for `CCOc1ccc(Nc2nc(N)c([N+](=O)[O-])c(NCc3ccccc3)n2)cc1` [N'-Benzyl-N-(4-ethoxy-phenyl)-5-nitro-pyrimidine-2,4,6-triamine], the figure is greater than 300 µM; as for `CCc1ccc(NC(=O)C(NS(=O)(=O)c2cccc3nsnc23)c2ccccc2)cc1` (centres undefined) [2-(2,1,3-benzothiadiazol-4-ylsulfonylamino)-N-(4-ethylphenyl)-2-phenyl-ethanamide], greater than 300 µM.
Consider `CC(C)c1ccc(C=NNC(=O)c2nnn(-c3nonc3N)c2CN2CCOCC2)cc1` [SMR000646507], for which the EC50 was greater than 300 µM.
`CS(=O)(=O)c1ccccc1-c1nnc(NC(=O)c2ccc3ncsc3c2)o1` yielded an EC50 greater than 300 µM.
The compound `Cc1ccc(OCC(=O)NN=C2SCC(=O)N2Cc2ccccc2)cc1` [2-(4-methylphenoxy)-N-[[4-oxo-3-(phenylmethyl)-2-thiazolidinylidene]amino]acetamide] showed an EC50 greater than 300 µM.
Next, `COc1ccc(Cl)cc1-n1c(C)ccc1C` [MLS000680869]: greater than 300 µM; `COc1cc(NC(=S)Nc2ccccn2)c(OC)cc1Cl` [1-(4-chloranyl-2,5-dimethoxy-phenyl)-3-pyridin-2-yl-thiourea]: 12.3 µM.
As for `Cn1c(SCc2cccc(Br)c2)nnc1-c1ccncc1` [4-[5-(3-Bromo-benzylsulfanyl)-4-methyl-4H-[1,2,4]triazol-3-yl]-pyridine], the figure is greater than 300 µM.
As for `Nc1nc(NCCCN2CCOCC2)nc(Nc2ccccc2F)c1[N+](=O)[O-]` [MLS000769816], the figure is 1.27 µM.
For the compound `CC(=O)N1CCc2c(sc(NC(=O)CN3C(=O)CCC3=O)c2C(N)=O)C1` [6-acetyl-2-[[2-(2,5-dioxopyrrolidin-1-yl)acetyl]amino]-5,7-dihydro-4H-thieno[2,3-c]pyridine-3-carboxamide], the concentration for a half-maximal effect (EC50) is 2.29 µM.
For `S=C1Nc2cc(Cl)ccc2Sc2ccccc21` [MLS000698392], the concentration giving a half-maximal response (EC50) is greater than 300 µM.
As for `COc1ccc(-c2nnc3ccc(SCc4ccccc4)nn23)cc1` [3-(4-methoxyphenyl)-6-(phenylmethylsulfanyl)-[1,2,4]triazolo[4,3-b]pyridazine], the figure is 31.7 µM; as for `CCOC(=O)c1cnc2ccc(C)cc2c1Nc1ccc(N2CCOCC2)cc1` [6-methyl-4-(4-morpholinoanilino)quinoline-3-carboxylic acid ethyl ester], greater than 300 µM.
The compound `CC(CC(=O)NCc1ccccc1)=NNC(=O)c1cnccn1` [MLS000701004] had a 50% effective concentration (EC50) greater than 300 µM.
Next, `COc1cccc(C(=O)Nc2nc3ccc(S(C)(=O)=O)cc3s2)c1` [SMR000280607]: greater than 300 µM.
For `COc1ccccc1N(CC(=O)N1CCc2ccccc2C1)S(C)(=O)=O` [N-[2-(3,4-dihydro-1H-isoquinolin-2-yl)-2-oxoethyl]-N-(2-methoxyphenyl)methanesulfonamide], the EC50 is greater than 300 µM.
Next, `COc1cccc(CNS(=O)(=O)c2cc(CN3C(=O)c4cccnc4C3=O)ccc2OC)c1` [SMR000630004]: greater than 300 µM.
Turning to `Cc1nnc2n(-c3ccccc3)c(=O)c3c4c(sc3n12)CC(C)CC4` (centres undefined) [MLS000030539], the concentration giving a half-maximal response (EC50) is greater than 300 µM.
As for `O=C(CCl)Oc1ccc2occ(C(=O)c3cccs3)c2c1` [SMR000121351], the EC50 amounted to 4.54 µM.
For the compound `COC(=O)c1nnn(-c2nonc2N)c1CN1CCc2ccccc21` [1-(4-amino-1,2,5-oxadiazol-3-yl)-5-(2,3-dihydroindol-1-ylmethyl)-4-triazolecarboxylic acid methyl ester], the 50% effective concentration (EC50) was 6.97 µM.
Consider `COc1ccc(NC(=S)Nc2cccc(Cl)c2Cl)cc1OC`, for which the concentration giving a half-maximal response (EC50) was greater than 300 µM.
Next, `O=C1NC(=O)N(CCc2ccc(F)cc2)C(=O)C1=CNN1CCCCC1` [1-[2-(4-Fluoro-phenyl)-ethyl]-5-[1-(piperidin-1-ylamino)-meth-(Z)-ylidene]-pyrimidine-2,4,6-trione]: greater than 300 µM.
As for `CN(C)Cc1c(C(=O)NN=Cc2ccoc2)nnn1-c1nonc1N` [1-(4-amino-1,2,5-oxadiazol-3-yl)-5-[(dimethylamino)methyl]-N-(3-furanylmethylideneamino)-4-triazolecarboxamide], the figure is 2.18 µM; as for `O=C(NCCCN1CCCCC1)c1ccc2c(c1)NC(=O)c1ccccc1S2` [6-oxidanylidene-N-(3-piperidin-1-ylpropyl)-5H-benzo[b][1,4]benzothiazepine-3-carboxamide], greater than 300 µM.
Turning to `COc1ccc(C2c3c(n[nH]c3C)N=C3CCCC(=O)C32)cc1OC` (centres undefined) [SMR000353889], the EC50 was greater than 300 µM.
Regarding `O=c1oc(-c2cccs2)nc2sc3c(c12)CCC3` [MLS000107331], the EC50 was greater than 300 µM.
As for `CCc1nn(CC(=O)NCCCc2ccccc2)c(=O)c2cc3c(OC)cccc3n12` [SMR000624506], the figure is greater than 300 µM; as for `Nc1ncnc2c1ccn2[C@@H]1O[C@H](CO)[C@@H](O)[C@H]1O` ['2-(4-AMINO-PYRROLO[2,3-D]PYRIMIDIN-7-YL)-5-HYDROXYMETHYL-TETRAHYDRO-FURAN-3,4-DIOL], greater than 300 µM; as for `Nc1nonc1-n1nnc(C(=O)NN=Cc2ccoc2)c1CSc1ccc(Cl)cc1` [1-(4-amino-1,2,5-oxadiazol-3-yl)-5-[(4-chlorophenyl)sulfanylmethyl]-N-(furan-3-ylmethylideneamino)triazole-4-carboxamide], greater than 300 µM.
Next, `O=C(Nc1ccccn1)Nc1cccs1` [MLS000093554]: greater than 300 µM; `CCCN(CCC)Cc1c(C(=O)NN=Cc2cccs2)nnn1-c1nonc1N`: 60 µM.
Next, `COc1cccc(NC2=CC(=O)CC(C)(C)C2)c1`: greater than 300 µM; `O=C(Nc1ccncc1)Nc1ccncc1` [1,3-bis(4-pyridyl)urea]: greater than 300 µM.
Regarding `c1ccc(CSc2nnc(-c3ccncc3)o2)cc1`, a half-maximal effect (EC50) was put at 5.14 µM.
Next, `COc1ccc(Nc2nc(-c3ccncc3)nc3ccccc23)cc1` [N-(4-methoxyphenyl)-2-pyridin-4-ylquinazolin-4-amine]: greater than 300 µM.

Values taken from BindingDB's records for doi:10.7270/Q2TX3CTT (Broad Institute, 2010).
